Experimental findings from patent US8415469B2, “Compounds and methods for kinase modulation, and indications therefor” (Plexxikon Inc., priority 2005, dated 2013) are described below.

Assay type in all cases: biochemical
In one test the target is T1, B-Raf (Homo sapiens, UniProt P15056).
T1 construct: purchased Upstate Biotechnology
The test can be described thus: AlphaScreen kinase assay, B-Raf. The settings on record: read-out: IC50, activity toward kinase B-Raf. Background: Bead proximity is the source of the signal in Alpha formats.

In another test the target is T2, B-Raf V600E (Homo sapiens, UniProt P15056, V600E).
T2 construct: P4254. pFastBacBD-CDC37 BRAF D437-K722-X, V600E; His6 with pFastBac HT leader (TEV site) (N); made in house; host or cells: Sf9 (baculovirus; chaperone CDC37 co-expressed)
The test can be described thus: AlphaScreen kinase assay, B-Raf V600E. The settings on record: read-out: IC50, activity toward kinase B-Raf V600E.

The next test deals with T3, c-Raf-1 (Homo sapiens, UniProt P04049).
T3 construct: purchased Upstate Biotechnology
The test can be described thus: AlphaScreen kinase assay, c-Raf-1. The settings on record: read-out: IC50, activity toward kinase c-Raf-1.

Another test has as its target T4, FGFR1 (Homo sapiens, UniProt P11362, C488A/C584S).
T4 construct: P1351.pET N6 BI-PTP FGFR A458-E765-X C488A, C584S; made in house; host or cells: E. coli (PTP1B co-expressed)
The test is described as follows: AlphaScreen kinase assay, FGFR1. The conditions noted are these: read-out: IC50, activity toward kinase FGFR.

The target of a further test is T5, Fms (Homo sapiens, UniProt P07333).
T5 construct: purchased Upstate Biotechnology
The test can be described thus: AlphaScreen kinase assay, Fms. The conditions noted are these: read-out: IC50, activity toward kinase Fms.

For a further test, the target named is T6, Kit (Homo sapiens, UniProt P10721).
T6 construct: P1332.N6 BI PTP KIT M552-K948-X COD; His6 (N); made in house; host or cells: E. coli (PTP1B co-expressed)
The test is described as follows: AlphaScreen kinase assay, Kit. The settings on record: read-out: IC50, activity toward kinase Kit.

Another test concerns the target T7, Flt1 (Homo sapiens, UniProt P17948).
T7 construct: P1826.pETN6 BI-PTP FLT1 M799-D1165-X WT; His6 (N); made in house; host or cells: E. coli (PTP1B co-expressed)
T7 sequence (P17948 with tags, fused parts or gaps): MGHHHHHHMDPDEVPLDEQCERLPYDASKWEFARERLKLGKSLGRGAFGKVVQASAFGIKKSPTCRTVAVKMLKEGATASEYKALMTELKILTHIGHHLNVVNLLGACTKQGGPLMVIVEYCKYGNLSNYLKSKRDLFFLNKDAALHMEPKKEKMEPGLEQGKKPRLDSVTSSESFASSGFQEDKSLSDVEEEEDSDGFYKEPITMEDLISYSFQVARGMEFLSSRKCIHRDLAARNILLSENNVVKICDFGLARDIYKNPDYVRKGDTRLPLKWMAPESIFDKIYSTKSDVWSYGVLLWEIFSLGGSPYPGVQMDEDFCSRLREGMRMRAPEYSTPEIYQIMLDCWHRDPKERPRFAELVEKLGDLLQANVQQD
The test is described as follows: AlphaScreen kinase assay, Flt1. The settings on record: read-out: IC50, activity toward kinase Flt1.

Another test has as its target T8, Ret (Homo sapiens, UniProt P07949).
T8 construct: P1378.pET-SF BI-PTP RET H661-R1012 HIS; made in house
T8 sequence (P07949 with tags, fused parts or gaps): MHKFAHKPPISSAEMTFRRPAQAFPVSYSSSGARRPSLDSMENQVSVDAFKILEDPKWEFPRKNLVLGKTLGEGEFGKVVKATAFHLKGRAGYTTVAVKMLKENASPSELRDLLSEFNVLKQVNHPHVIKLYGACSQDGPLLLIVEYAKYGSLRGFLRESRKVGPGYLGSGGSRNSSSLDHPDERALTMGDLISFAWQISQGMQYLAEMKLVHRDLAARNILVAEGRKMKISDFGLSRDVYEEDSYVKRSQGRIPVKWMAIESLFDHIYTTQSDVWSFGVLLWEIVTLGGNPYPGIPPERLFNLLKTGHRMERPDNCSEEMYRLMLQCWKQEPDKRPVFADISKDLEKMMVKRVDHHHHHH
The test is described as follows: AlphaScreen kinase assay, Ret. The conditions noted are these: read-out: IC50, activity toward kinase Ret.

T4 sequence (P11362 458-765 C488A/C584S): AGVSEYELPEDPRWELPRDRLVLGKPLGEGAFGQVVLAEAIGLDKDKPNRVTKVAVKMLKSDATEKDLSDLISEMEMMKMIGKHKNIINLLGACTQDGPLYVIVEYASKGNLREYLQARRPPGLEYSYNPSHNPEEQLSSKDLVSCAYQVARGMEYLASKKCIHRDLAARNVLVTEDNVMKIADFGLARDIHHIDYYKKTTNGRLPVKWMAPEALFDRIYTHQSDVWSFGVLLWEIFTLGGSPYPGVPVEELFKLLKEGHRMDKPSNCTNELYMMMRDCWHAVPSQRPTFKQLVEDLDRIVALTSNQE
T2 sequence (P15056 with tags, fused parts or gaps V600E): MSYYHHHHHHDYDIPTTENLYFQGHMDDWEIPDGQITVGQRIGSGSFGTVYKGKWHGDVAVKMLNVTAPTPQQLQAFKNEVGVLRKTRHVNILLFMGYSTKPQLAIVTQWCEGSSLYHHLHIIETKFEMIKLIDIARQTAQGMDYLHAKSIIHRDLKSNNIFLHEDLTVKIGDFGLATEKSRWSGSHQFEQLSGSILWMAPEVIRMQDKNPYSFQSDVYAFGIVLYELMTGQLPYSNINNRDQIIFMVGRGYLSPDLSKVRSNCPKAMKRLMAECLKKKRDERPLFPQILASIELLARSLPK
T5 sequence (P07333 20-972): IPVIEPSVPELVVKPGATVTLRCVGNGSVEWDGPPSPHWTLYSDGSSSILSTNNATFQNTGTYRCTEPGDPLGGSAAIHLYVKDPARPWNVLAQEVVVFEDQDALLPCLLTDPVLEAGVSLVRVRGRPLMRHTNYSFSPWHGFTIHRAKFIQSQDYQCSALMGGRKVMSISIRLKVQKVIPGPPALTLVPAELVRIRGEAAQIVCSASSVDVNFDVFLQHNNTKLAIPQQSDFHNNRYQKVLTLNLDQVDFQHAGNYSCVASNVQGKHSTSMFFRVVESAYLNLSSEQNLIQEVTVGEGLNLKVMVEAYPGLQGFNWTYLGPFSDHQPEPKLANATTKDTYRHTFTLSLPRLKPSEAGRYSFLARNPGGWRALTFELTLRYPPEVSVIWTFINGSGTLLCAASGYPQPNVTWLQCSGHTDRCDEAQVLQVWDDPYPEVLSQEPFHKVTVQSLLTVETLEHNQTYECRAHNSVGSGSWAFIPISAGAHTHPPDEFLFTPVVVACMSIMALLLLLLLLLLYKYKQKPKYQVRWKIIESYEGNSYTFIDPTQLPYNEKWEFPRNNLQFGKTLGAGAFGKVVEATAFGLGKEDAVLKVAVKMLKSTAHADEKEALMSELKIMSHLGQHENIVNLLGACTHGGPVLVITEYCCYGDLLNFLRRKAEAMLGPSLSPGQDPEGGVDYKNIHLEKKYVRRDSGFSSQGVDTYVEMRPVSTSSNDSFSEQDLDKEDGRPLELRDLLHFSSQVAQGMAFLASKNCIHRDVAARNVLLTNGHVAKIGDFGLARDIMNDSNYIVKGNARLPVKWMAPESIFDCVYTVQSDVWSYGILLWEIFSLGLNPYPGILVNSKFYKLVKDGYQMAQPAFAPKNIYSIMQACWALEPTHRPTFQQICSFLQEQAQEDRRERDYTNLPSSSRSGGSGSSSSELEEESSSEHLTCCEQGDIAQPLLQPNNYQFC
T1 sequence (P15056 whole entry): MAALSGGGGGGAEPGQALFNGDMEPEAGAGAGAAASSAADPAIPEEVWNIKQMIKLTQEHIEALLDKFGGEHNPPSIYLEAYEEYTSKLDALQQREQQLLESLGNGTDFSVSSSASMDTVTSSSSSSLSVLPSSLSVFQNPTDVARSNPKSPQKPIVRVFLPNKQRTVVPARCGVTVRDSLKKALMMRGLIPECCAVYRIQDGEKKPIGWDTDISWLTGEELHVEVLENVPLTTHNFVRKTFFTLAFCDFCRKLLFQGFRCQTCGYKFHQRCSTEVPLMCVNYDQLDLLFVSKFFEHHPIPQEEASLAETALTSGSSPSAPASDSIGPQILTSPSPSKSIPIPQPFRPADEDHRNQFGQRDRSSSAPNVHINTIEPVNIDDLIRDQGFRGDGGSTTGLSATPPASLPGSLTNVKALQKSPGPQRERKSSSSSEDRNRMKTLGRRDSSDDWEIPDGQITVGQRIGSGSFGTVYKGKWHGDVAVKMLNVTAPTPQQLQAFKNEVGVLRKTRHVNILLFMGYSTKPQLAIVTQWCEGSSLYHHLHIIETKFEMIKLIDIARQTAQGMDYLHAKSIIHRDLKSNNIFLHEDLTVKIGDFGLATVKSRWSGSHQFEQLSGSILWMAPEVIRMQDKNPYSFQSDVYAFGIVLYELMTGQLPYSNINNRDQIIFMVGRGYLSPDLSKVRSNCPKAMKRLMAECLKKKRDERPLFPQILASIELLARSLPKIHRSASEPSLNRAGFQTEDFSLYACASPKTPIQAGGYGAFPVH
T6 sequence (P10721 with tags, fused parts or gaps): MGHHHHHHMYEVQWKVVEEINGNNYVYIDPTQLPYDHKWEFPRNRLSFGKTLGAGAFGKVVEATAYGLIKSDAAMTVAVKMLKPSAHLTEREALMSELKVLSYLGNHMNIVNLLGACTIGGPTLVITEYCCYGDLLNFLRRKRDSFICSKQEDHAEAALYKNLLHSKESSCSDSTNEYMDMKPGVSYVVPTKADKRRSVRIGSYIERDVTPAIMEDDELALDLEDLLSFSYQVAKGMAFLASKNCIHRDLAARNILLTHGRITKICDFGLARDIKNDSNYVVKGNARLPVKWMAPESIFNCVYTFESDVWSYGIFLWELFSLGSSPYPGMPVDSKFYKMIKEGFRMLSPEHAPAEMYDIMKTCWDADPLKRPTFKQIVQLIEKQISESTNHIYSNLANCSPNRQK
T3 sequence (P04049 whole entry): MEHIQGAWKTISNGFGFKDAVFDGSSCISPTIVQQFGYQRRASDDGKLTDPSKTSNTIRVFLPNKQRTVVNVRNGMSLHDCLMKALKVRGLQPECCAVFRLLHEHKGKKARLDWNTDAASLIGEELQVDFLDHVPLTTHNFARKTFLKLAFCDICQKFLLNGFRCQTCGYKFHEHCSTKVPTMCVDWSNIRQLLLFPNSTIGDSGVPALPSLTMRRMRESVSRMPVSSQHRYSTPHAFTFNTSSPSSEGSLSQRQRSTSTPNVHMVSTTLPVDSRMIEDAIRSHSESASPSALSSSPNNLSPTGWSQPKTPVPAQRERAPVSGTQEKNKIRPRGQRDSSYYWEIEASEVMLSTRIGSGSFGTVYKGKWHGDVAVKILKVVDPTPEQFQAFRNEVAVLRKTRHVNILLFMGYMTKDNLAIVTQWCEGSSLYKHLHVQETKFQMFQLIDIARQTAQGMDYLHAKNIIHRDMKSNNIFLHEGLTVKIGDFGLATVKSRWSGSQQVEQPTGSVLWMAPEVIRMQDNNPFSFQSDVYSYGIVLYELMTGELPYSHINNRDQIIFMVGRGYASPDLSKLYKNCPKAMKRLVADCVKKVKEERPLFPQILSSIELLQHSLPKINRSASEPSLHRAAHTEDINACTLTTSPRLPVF

As a reminder, the IC50 is the midpoint of a concentration-inhibition curve. As for `COC(c1ccc(NCc2ccc(C(F)(F)F)cc2)nc1)c1c[nH]c2ncccc12` (stereo not drawn) [Compound P-0382], the IC50 on B-Raf, on B-Raf V600E and on c-Raf-1 was no more than 10 µM in each case.
In the case of `COc1cccc(Cc2c[nH]c3ncc(Br)cc23)c1F` [Compound P-0535, 5-Bromo-3-(2-fluoro-3-methoxy-benzyl)-1H-pyrrolo[2,3-b]pyridine], the IC50 at B-Raf V600E, at c-Raf-1, at FGFR1, on Fms and at Kit was no more than 10 µM in each case.
For the compound `Cc1cc(C(=O)c2c[nH]c3ncc(-c4ccc(C(N)=O)cc4)cc23)nn1C` [Compound P-0749], the IC50 on FGFR1, on Flt1, on Kit and at Ret was no more than 10 µM in each case.
On to `COC(c1ccc(N(Cc2ccc(Cl)cc2)C(=O)OC(C)(C)C)nc1)c1c[nH]c2ncc(Br)cc12` (stereo not drawn) [Compound P-0779], for which the IC50 at B-Raf, at B-Raf V600E and on c-Raf-1 was no more than 10 µM each time.
For `CC(=O)Nc1cccc(Nc2ccnc3[nH]ccc23)c1` [Compound P-0941], the IC50 on B-Raf and at c-Raf-1 was no more than 10 µM each time.
With `O=S(=O)(Nc1ccc(F)c(C(O)c2c[nH]c3ncc(Br)cc23)c1F)c1ccccc1` (stereo not drawn) [Compound P-0959], the IC50 at B-Raf, at B-Raf V600E and at c-Raf-1 was no more than 10 µM in each case.
Regarding `O=[N+]([O-])c1cccc(Nc2ccnc3[nH]ccc23)c1` [Compound P-0973], the IC50 on B-Raf and at c-Raf-1 was no more than 10 µM in each case.
In the case of `COC(=O)Nc1ccc(F)c(C(=O)c2c[nH]c3ncccc23)c1F` [Compound P-0974, [2,4-Difluoro-3-(1H-pyrrolo[2,3-b]pyridine-3-carbonyl)-phenyl]-carbamic acid methyl ester], the IC50 at c-Raf-1 and at FGFR1 was no more than 10 µM in each case.
As to `c1ccc2cc(Nc3ccnc4[nH]ccc34)ccc2c1` [Compound P-0975], the 50% inhibitory concentration (IC50) on B-Raf and at c-Raf-1 was no more than 10 µM each time.
Consider `Fc1ccc(Nc2ccnc3[nH]ccc23)cc1F` [Compound P-0987], for which the IC50 on B-Raf and at c-Raf-1 was no more than 10 µM each time.
As to `O=S(=O)(Nc1ccc(F)c(C(O)c2c[nH]c3ncc(F)cc23)c1F)c1ccccc1` (stereo not drawn) [Compound P-1003], the IC50 on B-Raf, at B-Raf V600E and on c-Raf-1 was no more than 10 µM in each case.
In the case of `CCCCOc1ccc(S(=O)(=O)Nc2ccc(F)c(C(=O)c3c[nH]c4ncccc34)c2F)cc1` [Compound P-1006, 4-Butoxy-N-[2,4-difluoro-3-(1H-pyrrolo[2,3-b]pyridine-3-carbonyl)-phenyl]-benzenesulfonamide], the IC50 at B-Raf, on B-Raf V600E and on c-Raf-1 was no more than 10 µM in each case.
As for `Cc1nc2ccc(Nc3ccnc4[nH]ccc34)cc2s1` [Compound P-1014], the IC50 on B-Raf, on B-Raf V600E and on c-Raf-1 was no more than 10 µM throughout.
Regarding `O=C(c1c(F)ccc(NS(=O)(=O)c2ccc(Cl)c(Cl)c2)c1F)c1c[nH]c2ncccc12` [Compound P-1015, 3,4-Dichloro-N-[2,4-difluoro-3-(1H-pyrrolo[2,3-b]pyridine-3-carbonyl)-phenyl]-benzenesulfonamide], the IC50 on B-Raf V600E, at c-Raf-1 and on FGFR1 was no more than 10 µM each time.
Turning to `Fc1cnc2[nH]ccc2c1` [Compound P-1061], the IC50 at B-Raf V600E and at c-Raf-1 was no more than 10 µM throughout.
For `Clc1cnc2[nH]ccc2c1` [Compound P-1063], the IC50 on B-Raf V600E and on c-Raf-1 was no more than 10 µM throughout.
`COC(c1ccc(NCc2ccc(Cl)c(C(F)(F)F)c2)nc1)c1c[nH]c2ncccc12` (stereo not drawn) [Compound P-1064]: the IC50 on B-Raf V600E and at c-Raf-1 was no more than 10 µM in each case.
For the compound `COc1cccc(Nc2ccnc3[nH]ccc23)c1` [Compound P-1065], the IC50 on B-Raf V600E and on c-Raf-1 was no more than 10 µM each time.
For `CCC(C(=O)c1c[nH]c2ncccc12)S(=O)(=O)Nc1cc(F)cc(F)c1` (stereo not drawn) [Compound P-1070], the IC50 at B-Raf V600E and on c-Raf-1 was no more than 10 µM throughout.
Regarding `CCCS(=O)(=O)Nc1ccc(F)c(C(O)c2c[nH]c3ncc(N4CCOCC4)cc23)c1F` (stereo not drawn) [Compound P-1071], the IC50 at B-Raf V600E and at c-Raf-1 was no more than 10 µM in each case.
With `CCOc1cccc(Nc2ccnc3[nH]ccc23)c1` [Compound P-1076], the IC50 on B-Raf and on c-Raf-1 was no more than 10 µM in each case.
Take `CCCNC(=O)c1ccc(OC)c(C(=O)c2c[nH]c3ncc(-c4cccnc4)cc23)c1F` [Compound P-1077]: the IC50 on c-Raf-1 is no more than 10 µM.
Turning to `CCCNS(=O)(=O)c1ccc(OC)c(C(=O)c2c[nH]c3ncc(-c4cccnc4)cc23)c1F` [Compound P-1078], the IC50 on c-Raf-1 and at FGFR1 was no more than 10 µM each time.
`CC(C)Oc1cccc(Nc2ccnc3[nH]ccc23)c1` [Compound P-1079]: at c-Raf-1, the IC50 was no more than 10 µM.
For the compound `c1cc2cc(N3CCOCC3)cnc2[nH]1` [Compound P-1118], the IC50 on c-Raf-1 was no more than 10 µM.
For the compound `CC1CCN(c2cnc3[nH]ccc3c2)CC1` [Compound P-1122], on c-Raf-1, the half-inhibitory concentration (IC50) was no more than 10 µM.
Consider `CCCS(=O)(=O)Nc1ccc(F)c(C(=O)c2c[nH]c3ncc(-c4cccc(F)c4)cc23)c1F` [Compound P-1259, Propane-1-sulfonic acid {2,4-difluoro-3-[5-(3-fluoro-phenyl)-1H-pyrrolo[2,3-b]pyridine-3-carbonyl]-phenyl}-amide], for which the half-inhibitory concentration (IC50) on B-Raf, at B-Raf V600E, on FGFR1, at Flt1, at Fms and at Kit was no more than 10 µM throughout.
For the compound `CCCC(=O)Nc1ccc(F)c(C(=O)c2c[nH]c3ncc(Br)cc23)c1F` [Compound P-1283], the IC50 at B-Raf V600E, at c-Raf-1 and at FGFR1 was no more than 10 µM in each case.
For `O=C(c1cccc(OC(F)(F)F)c1)c1c[nH]c2ncc(-c3cccnc3)cc12` [Compound P-1413, (5-Pyridin-3-yl-1H-pyrrolo[2,3-b]pyridin-3-yl)-(3-trifluoromethoxy-phenyl)-methanone], the IC50 on B-Raf V600E, at c-Raf-1 and at Kit was no more than 10 µM each time.
For `CS(=O)(=O)Nc1cccc(-c2cnc3[nH]cc(C(=O)c4cccc(OC(F)F)c4)c3c2)c1` [Compound P-1430, N-{3-[3-(3-Difluoromethoxy-benzoyl)-1H-pyrrolo[2,3-b]pyridin-5-yl]-phenyl}-methanesulfonamide], the IC50 at B-Raf, on B-Raf V600E, at FGFR1, on Flt1, at Fms and on Kit was no more than 10 µM in each case.
Consider `O=C(c1c(F)ccc(OC(F)F)c1F)c1c[nH]c2ncc(Br)cc12` [Compound P-1526, (5-Bromo-1H-pyrrolo[2,3-b]pyridin-3-yl)-(3-difluoromethoxy-2,6-difluoro-phenyl)-methanone], for which the half-maximal inhibitory concentration (IC50) on B-Raf, at B-Raf V600E, at FGFR1, on Flt1, on Fms and at Kit was no more than 10 µM each time.
As to `O=C(c1c(F)ccc(OC(F)F)c1F)c1c[nH]c2ncc(-c3cccnc3)cc12` [Compound P-1528, (3-Difluoromethoxy-2,6-difluoro-phenyl)-(5-pyridin-3-yl-1H-pyrrolo[2,3-b]pyridin-3-yl)-methanone], the IC50 on B-Raf, on B-Raf V600E, on FGFR1, at Flt1, at Fms and at Kit was no more than 10 µM in each case.
